Strand notation (5' to 3'): a small letter for the sugar, then the base; units joined by * are phosphorothioate-linked, units joined directly phosphodiester-linked; [ ] holds rarer units or linkages, { } end groups; capitals alone tell only the bases. d = 2'-deoxy (DNA)
How the values were obtained:
[1] = test system: HBV genomes in the supernatants from HepG2.2.15 cells; assay: Kinetic PCR HBV anti-viral assay on supernatants from HepG2.2.15 cells; assay type: cell-based, hepatitis B virus; details: copy number of HBV genomes in HepG2.2.15 supernatants, day 10
Protocol: In addition to Southern hybridizations, kinetic PCR was performed to assay the supernatants from the HepG2.2.15 cells. This procedure was carried out as described by Higuchi et al. (Biotechnol. (1993) 11:1026–1030). All PCRs were carried out with two sets of external controls which consisted of a dilution series of a known concentration of plasmid DNA that contained the HBV core gene amplified with the same primer set. These controls generated a standard curve that was used to calculate the copy number of HBV genomes in the supernatants from cells exposed to the various dilutions of compound.
The anti-viral assay was performed using HepG 2.2.15 cells (Sells et al. ([…]) Proc. Natl. Acad. Sci. (USA) 84:1005–1009) seeded at a density of 1×10^5 per well in 24 well plates. The cells were grown to confluence and allowed to stabilize for 2–3 days in RPMI media (supplemented with 10% fetal calf serum (FCS), 2 mM glutamine and penstrep (Life Technologies Ltd., Paisley, Scotland) prior to the addition of the oligonucleotide (defined as day 0). Six dilutions (10, 5, 1, 0.5, 0.1, and 0 μM) were set up in duplicate for each of the antisense oligonucleotides. In each assay run, the nucleoside analog, β-L-(2R,5S)-1,3 oxathiolanyl cytosine (3TC) (Glaxo, Greenford, U.K.) was included as positive control at 0.5, 0.1, 0.075, 0.05, and 0.01 and 0 μM in duplicate. Oligonucleotide was added to 1 ml of RPMI media (supplemented with 3% FCS, 2 mM glutamine and penstrep) at each of the indicated dilutions. At days 2, 4 and 7, the old media was removed and replaced with fresh media containing compound. At day 10, the supernatants were harvested, clarified by low speed centrifugation, prior to the addition of Triton X100 (Sigma, St. Louis, Mo.) and tri-n-butyl phosphate to give a final concentration of 1%. The samples were then heated to 70° C. for 20 minutes to disrupt the viral particles.
Following this treatment, the viral particles were subject to analysis by kinetic PCR. The primers RJ407 (SEQ ID NO:51) and RJ431 (SEQ ID NO:52) were used to detect a 205 bp fragment of the core gene. Kinetic PCR was performed essentially as described by Higuchi et al. (Biotechnol. (1993) 11:1026–1030). Briefly, the PCR reactions were set up under standard conditions except that ethidium bromide was included at a concentration of 4 μg/ml. […] A kinetic PCR analysis was performed by plotting the average intensity of fluorescence from each PCR sample after each annealing/extension cycle against the cycle number. The original template concentration can be calculated by utilizing a standard fluorescence curve generated by templates of known concentration.

[2] = test system: In vitro transcribed HBV RNA (adw strain); assay: RNase H cleavage assay with contiguous oligodeoxynucleotide phosphorothioates (FIG. 2); assay type: biochemical, hepatitis B virus; details: end-labelled HBV RNA (adw), regions found with random 20mer library
Protocol: To determine whether an oligonucleotide of the invention is capable of successfully hybridizing to its target, an RNase H assay was performed (Frank et al. (1993) Proc. Int. Conf. Nucleic Acid Med. Applns. 1:4.14(abstract)). This assay is useful when a region of at least four contiguous nucleotides of the oligonucleotide is DNA and the target is RNA. Hybridization of the DNA portion of the oligonucleotide to the RNA target is identified by cleavage at that site by RNase H.
In vitro transcribed HBV RNA (adw strain) was probed for sites accessible to oligonucleotide hybridization using a randomized library of 20 base oligodeoxynucleotides (approximately […]). Hybridization to the RNA was detected by RNase H cleavage of the end-labelled transcript. Three regions were identified by this assay. One region was in the 5′ untranslated region, between 113 and 70 bases upstream from the core initiator, and two regions were in the coding regionfor core, between 78 and 174 bases downstream from the core initiator. Contiguous oligodeoxynucleotide phosphorothioates were prepared against these regions and their ability to activate RNase H cleavage of the transcript measured.
The plasmid pHBVE+was generated by subcloning a StuI, BamHI fragment from the plasmid pAM6 (ATCC Ac. No. 45020, American Type Culture Collection, Rockville, Md.), representing HBV subtype adw nt 1701-nt 34 (GenBank accession # V00866) (Ono et al. (1983) Nucleic Acids Res. 11:1747–1757), into pBluescript II SK(+) (Stratagene, La Jolla, Calif.). […]
In 9 μl 1× RNase H buffer (40 mM Tris-HCl pH 7.4, 4 mM MgCl2, 1 mM DTT), 20–100 nM labelled RNA and 100 nM oligonucleotides were preincubated for 15 min at 37° C. […] The reactions were quenched and analyzed as described above.
Quantitation of the cleavage products was performed using software supplied with the Phosphorimager (Molecular Dynamics, Sunnyvale, Calif., or Bio-Rad Laboratories, Hercules, Calif.). “Counts” were determined by drawing a box around the band of interest and subtracting the background determined with a box drawn nearby. […]

[3] = test system: HBV subtype ayw polymerase gene-luciferase fusion construct; assay: Firefly luciferase reporter gene assay in stably transfected HepG2 cells (pol-luciferase fusion); assay type: cell-based; details: versus random 20mer PS negative control, FIG. 9
Protocol: Oligonucleotides targeted to the polymerase translation initiation region were also tested in mammalian cells using a firefly luciferase reporter gene assay. The 35 nucleotide region spanning the translation start site of the HBV ayw polymerase gene from nt 2294–2328 was cloned 5′ to, and in frame with, the entire open reading frame of the firefly luciferase gene in the plasmid pGLori, to produce the plasmid pGLpol (FIG. 10). Transcription of this pol-luciferase gene fusion was placed under the control of the cytomegalovirus early gene promoter. Expression of the pol-luciferase fusion in mammalian cells was quantified in a luminometer by addition of luciferin substrate and ATP cofactor to cell lysates. In all cellular antisense assays, a random sequence 20mer phosphorothioate oligonucleotide (random 20mer PS) was used as a negative control. […]
Stably transfected HepG2 cells were seeded into 96 well plates. […] Cells were washed twice with Dulbecco's phosphate-buffered saline (PBS) and lysed in 50 μl cell lysis buffer (Analytical Luminescence Laboratory, San Diego, Calif.). Luciferase activity was measured in 20 μl lysate using Analytical Luminescence Laboratory substrates in a MicroLumat LB 96 P luminometer (EG&G Berthold, Nashua, N.H.).

GAAAAAGTTGCATGGTGCTG (antisense dG*dA*dA*dA*dA*dA*dG*dT*dT*dG*dC*dA*dT*dG*dG*dT*dG*dC*dT*dG) [HBV44]
IC50 [1]: 0.7 µM | ability to activate RNase H cleavage of the transcript [2]: single peaks of activity

GAGGCGGTGTCTAGGAGATC (antisense dG*dA*dG*dG*dC*dG*dG*dT*dG*dT*dC*dT*dA*dG*dG*dA*dG*dA*dT*dC) [HBV57]
ability to activate RNase H cleavage of the transcript [2]: single peaks of activity

GATAGGGGCATTTGGTGGTC (phosphorothioate, further chemistry not given here) [HBVpol-2]
IC50 [1]: 3.7 µM | antisense activity on luciferase expression [3]: had sequence-specific antisense activity

GCAGTATGGTGAGGTGAGCA (antisense dG*dC*dA*dG*dT*dA*dT*dG*dG*dT*dG*dA*dG*dG*dT*dG*dA*dG*dC*dA) [HBV41]
ability to activate RNase H cleavage of the transcript [2]: single peaks of activity

GGCATTTGGTGGTCTATAAG (antisense dG*dG*dC*dA*dT*dT*dT*dG*dG*dT*dG*dG*dT*dC*dT*dA*dT*dA*dA*dG) [HBVpol-1]
antisense activity on luciferase expression [3]: had sequence-specific antisense activity
